Structures can show the parent of a compound that is named as a salt. Where two headings read alike, the source gives them in different places.

Assay [1] in a line: Isolation-Induced Aggression in Mice. The format is in vivo, Male Balb/c mice. The conditions noted are these: oral; for ED50: Mus musculus, 0.25 h, 15 min after dosing, isolated male Balb/c mice, read-out: Inhibition of Isolation-induced Aggression ED50; for inhibiting isolation-induced aggressive behavior (in words): mice, summary of Table 5. The protocol: Male Balb/c mice (Charles River) were used. […] Isolated mice failing to consistently attack an intruder were eliminated from the colony. Drug testing was carried out by treating the isolated mice with test drugs or standards. Fifteen minutes after dosing with test drugs by the oral route, one isolated mouse was removed from its home cage and placed in the home cage of another isolate. Scoring was a yes or no response for each pair. A maximum of 3 minutes was allowed for an attack and the pair was separated immediately upon an attack. Selection of home cage and intruder mice was randomized for each test. Mice were treated and tested twice a week with at least a 2 day washout period between treatments.

In assay [2] the target is T1, dopamine D-2 receptor (Cavia porcellus, UniProt H0VE83).
T1 construct: Membranes were prepared from guinea pig striatum; from tissue; host or cells: guinea pig striatum membranes
Description: Dopamine Receptor Binding ([3H]spiperone, striatum membranes). Details: species or system guinea pig. The protocol: (§1) Male Hartley guinea pigs (250-300 g, Charles River) were sacrificed by decapitation. […] Whole brains were homogenized (20 seconds) in 10 vol (wt/vol) of ice-cold 0.34 M sucrose with a Brinkmann Polytron (setting 8). The homogenate was centrifuged at 920 × g for 10 minutes. The supernatant was centrifuged at 47,000 × g for 20 minutes. The resulting membrane pellet was resuspended in 10 vol (original wt/vol) of 50 mM Tris HCl (pH 7.4) and incubated at 37° C. for 45 minutes to degrade and dissociate bound endogenous ligands. The membranes were then centrifuged at 47,000 × g for 20 minutes and resuspended in 50 mM Tris HCl (50 mL per brain).
Membranes were prepared from guinea pig striatum by the method described for sigma receptor binding. The membranes were then resuspended in 50 mM Tris HCl (9 mL per brain).
Nonspecific binding was measured in the presence of 100 nM (+)-butaclamol.After 15 minutes of incubation at 37° C., samples were filtered rapidly through Whatman GF/C glass filters under negative pressure, and washed three times with ice-cold binding buffer (5 mL).
IC50 s were calculated from log-logit plots.

Assay [3] addresses sigma receptor (Cavia porcellus, UniProt Q60492). Description: biochemical. The conditions noted are these: 1 nM (+)-[3H]SKF 10,047, guinea pig brain membranes, pH 7.4, 45 min, room temperature; read-out: SIGMA receptor binding Ki. The protocol: as §1
After 45 minutes of incubation at room temperature, samples were filtered rapidly through Whatman GF/C. glass filters under negative pressure, and washed 3 times with ice-cold Tris buffer (5 mL).
IC50 s were calculated from log-logit plots. Apparent Ki s were calculated from the equation, Ki = IC50 /[1+(L/Kd)] (4), where L is the concentration of radio ligand and Kd is its dissociation constant.

Setting [4] is: 0.15 nM [3H]spiperone, guinea pig striatum membranes, pH 7.7, 15 min, 37° C., read-out: DOPAMINE D-2 receptor binding Ki.

Sequence of sigma receptor (Q60492 whole entry): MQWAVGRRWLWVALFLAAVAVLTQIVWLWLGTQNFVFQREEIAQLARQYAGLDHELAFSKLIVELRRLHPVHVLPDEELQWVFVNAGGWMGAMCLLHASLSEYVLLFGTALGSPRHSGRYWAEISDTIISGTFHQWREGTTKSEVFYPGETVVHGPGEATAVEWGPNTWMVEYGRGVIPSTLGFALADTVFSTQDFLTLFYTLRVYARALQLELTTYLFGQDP
T1 sequence (H0VE83 1-446): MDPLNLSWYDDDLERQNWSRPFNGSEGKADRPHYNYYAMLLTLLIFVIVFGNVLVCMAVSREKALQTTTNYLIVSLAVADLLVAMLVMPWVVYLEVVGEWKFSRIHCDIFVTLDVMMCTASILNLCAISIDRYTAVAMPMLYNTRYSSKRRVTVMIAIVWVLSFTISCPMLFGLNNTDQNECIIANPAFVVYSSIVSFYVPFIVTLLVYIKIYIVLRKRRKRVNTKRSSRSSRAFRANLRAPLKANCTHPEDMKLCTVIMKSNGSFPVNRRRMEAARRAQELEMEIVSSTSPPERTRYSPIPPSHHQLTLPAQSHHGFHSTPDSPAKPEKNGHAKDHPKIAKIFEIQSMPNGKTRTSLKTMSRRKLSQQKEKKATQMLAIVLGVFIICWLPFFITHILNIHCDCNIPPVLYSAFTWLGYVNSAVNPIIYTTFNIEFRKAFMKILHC

As for `O=C(CCCN1CCC(O)(c2ccc(Cl)cc2)CC1)c1ccc(F)cc1` [Haloperidol, reference compound], in assay [1], the ED50 (commonly the dose that gives a 50% effect, or the effect in half of the subjects) is < 10 mg/kg and the “inhibiting isolation-induced aggressive behavior (in words)” value is reported as “effective”.
Regarding `C(#Cc1ccccc1)COCCC1CCN(CCc2ccccc2)CC1` [Example 39, 1-Phenethyl-4-(3-phenyl-2-propynyloxy)ethyl] piperidine, hydrochloride salt], the values for the Ki in assay [2] (setting [4]) and in assay [3] were 0.101 to 0.5 µM and 0.001 to 0.03 µM, respectively.
Turning to `C(=C\c1ccccc1)/COCC1CCN(Cc2cccc3ccccc23)CC1` [Example 33], the values for the Ki in assay [2] (setting [4]) and in assay [3] were > 0.5 µM and 0.031 to 0.1 µM, respectively.
As for `C(=C\c1ccccc1)/COCCC1CCCCN1Cc1ccccc1` (centres unmarked) [Example 24], the Ki (as a rule, the equilibrium dissociation constant of an inhibitor or competing ligand from its target) in assay [2] (setting [4]) was > 0.5 µM; in assay [3], 0.001 to 0.03 µM.
As for `C(=C\c1ccccc1)/COCC1CCN(Cc2ccc3ccccc3c2)CC1` [Example 26], the Ki in assay [2] (setting [4]) was > 0.5 µM; in assay [3], 0.001 to 0.03 µM.
`C(=C\c1ccccc1)/COCC1CCN(Cc2ccccc2)CC1.Cl` [Example 21, (E)-1-Benzyl-4-[(3-phenyl-2-propenyloxy)methyl]piperidine hydrochloride]: in assay [1], the ED50 was 21 to 70 mg/kg. Moreover, the “inhibiting isolation-induced aggressive behavior (in words)” value in assay [1] is “effective”. For the same compound, the inhibition constant (Ki) in assay [2] (setting [4]) is > 0.5 µM; in assay [3], 0.001 to 0.03 µM.
Regarding `C(COCC1CCN(Cc2ccccc2)CC1)=C(c1ccccc1)c1ccccc1` [Example 34], the Ki is > 0.5 µM in assay [2] and 0.001 to 0.03 µM in assay [3].
Turning to `C(=C\c1ccccc1)/COCC1CCN(CCc2ccccc2)CC1` [Example 25, (E)-1-phenethyl-4-[(3-phenyl-2-propenyloxy)methyl] piperidine, hydrochloride salt], in assay [1], the ED50 was in the range of 21 to 70 mg/kg. The “inhibiting isolation-induced aggressive behavior (in words)” value in assay [1] is on record as “effective”. Also, the Ki is 0.101 to 0.5 µM in assay [2] (setting [4]) and 0.001 to 0.03 µM in assay [3].
`C(=C\c1ccccc1)/COCC1CCCN(Cc2ccccc2)C1` (centres unmarked) [Example 27]: the Ki was > 0.5 µM in assay [2] (setting [4]) and 0.001 to 0.03 µM in assay [3].
`C(=C\c1ccccc1)/COC[C@H]1CCCN1Cc1ccccc1` [Example 37]: the Ki was > 0.5 µM in assay [2] (setting [4]) and 0.001 to 0.03 µM in assay [3].
The corresponding values for `CCCCCCN1CCC(COC/C=C/c2ccccc2)CC1` [Example 36] are > 0.5 µM and 0.001 to 0.03 µM.
In the case of `FC(F)(F)c1ccc(/C=C/COCC2CCN(Cc3ccccc3)CC2)cc1` [Example 35, (E)-1-benzyl-4-{[3-(4-trifluoromethyl)phenyl-2-propenyloxy]methyl}piperidine, maleic acid salt], the Ki in assay [2] (setting [4]) was > 0.5 µM; in assay [3], 0.001 to 0.03 µM.
`Fc1ccc(/C=C/COCC2CCN(Cc3ccccc3)CC2)cc1` [Example 22, (E)-1-benzyl-4-{[3-(4-fluoro)phenyl-2-propenyloxy]methyl} piperidine, hydrochloride salt]: the Ki in assay [2] (setting [4]) is > 0.5 µM; in assay [3] it was 0.001 to 0.03 µM.
On to `C(=C\c1ccccc1)/COC[C@@H]1CCCN1Cc1ccccc1` [Example 38], for which the values for the Ki in assay [2] (setting [4]) and in assay [3] were > 0.5 µM and 0.001 to 0.03 µM, respectively.
Consider `C(=C\c1ccccc1)/COC1CCN(Cc2ccccc2)C1` (centres unmarked) [Example 32], for which the Ki was > 0.5 µM in assay [2] (setting [4]) and 0.001 to 0.03 µM in assay [3].
For the compound `CC(C)=CCN1CCC(COC/C=C/c2ccccc2)CC1` [Example 29], the Ki in assay [2] (setting [4]) was > 0.5 µM; in assay [3], 0.001 to 0.03 µM.
The corresponding values for `C(#Cc1ccccc1)COCCC1CCN(Cc2ccccc2)CC1` [Example 40] are > 0.5 µM and 0.001 to 0.03 µM.
As to `C(=C\c1ccccc1)/COCCC1CCN(Cc2ccccc2)CC1` [Example 41, (E)-1Benzyl-4-[(3-phenyl-2-propenyloxy)lethyl]piperidine, maleic acid salt], the inhibitory constant (Ki) in assay [2] (setting [4]) was > 0.5 µM; in assay [3] it was 0.001 to 0.03 µM.
Consider `C(=C\c1ccccc1)/COC1CCN(Cc2ccccc2)CC1` [Example 31], for which the Ki in assay [2] (setting [4]) is > 0.5 µM; in assay [3], 0.001 to 0.03 µM.
With `C(=C\c1ccccc1)/COCC1CCCCN1Cc1ccccc1` (centres unmarked) [Example 28], the results for the Ki in assay [2] (setting [4]) and in assay [3] were > 0.5 µM and 0.001 to 0.03 µM, respectively.
On to `C(=C\c1ccccc1)/COCC1CCN(CC2CC2)CC1` [Example 23], for which the results for the Ki in assay [2] (setting [4]) and in assay [3] were > 0.5 µM and 0.001 to 0.03 µM, respectively.
The matching figures for `C(=C\c1ccccc1)/COCC1CCN(CCCc2ccccc2)CC1` [Example 30, (E)-1-(3-phenyl)propyl-4-[(3-phenyl-2-propenyloxy)methyl]piperidine, hydrochloride salt]: > 0.5 µM and 0.001 to 0.03 µM.
As for `C(=C/c1ccccc1)/COCCC1CCN(Cc2ccccc2)CC1` [Example 42, (Z)-1-Benzyl-4[(3-phenyl-2-propenyloxy)ethyl]piperidine], the results for the Ki in assay [2] (setting [4]) and in assay [3] were > 0.5 µM and 0.031 to 0.1 µM, respectively.

For the origin of these results see patent US5317024A, “Ether derivatives of alkyl piperidines and pyrrolidines as antipsychotic agents” (DuPont Merck Pharmaceutical Co., priority 1993, dated 1994).
